Key:
HIV-1 strain 103 N = assay: Retrovirucidal effect on HIV-1 strain 103 N (Table 3); type: cell-based
Outline: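 HIV-1 103N (RT K103N mutant; 100 TCID50) was exposed to inhibitor for 3 h at room temperature and then washed free of compound by membrane filtration. Residual infectivity was measured on P4 cells: one day after infection, β-galactosidase was read by MUG fluorescence after 3 h at 37 °C.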

HIV-1 strain IIIB = assay: Retrovirucidal effect on HIV-1 strain IIIB (Table 3); type: cell-based
Outline: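 Virus (100 TCID50 HIV-1 in cell supernatant) exposed to compound 3 h at room temperature, then washed free of compound by membrane filtration. Residual infectivity measured on P4 cells after one day as β-galactosidase activity with MUG substrate (3 h, 37° C), read by fluorescence.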

[1] = target: T1, recombinant HIV-RT enzyme (Human immunodeficiency virus type 1 group M subtype B, UniProt P03366); assay: Inhibition of the reverse transcriptase; type: biochemical
T1 construct: the recombinant HIV-RT enzyme; made in house
Procedure: (§1) The antiviral activity, the expression and purification of the recombinant HIV-RT enzyme, the reverse transcriptase activities and the inhibition of RT were evaluated as described in WO 97/05 113.
The IC50 of the compound of example 1 for the inhibition of the reverse transcriptase is 20 nM.

HIV-ILai isolate = assay: Retrovirucidal effect (residual infectivity on P4 cells); type: cell-based, HIV-1; conditions: 3 hours with virions
Procedure: The retrovirucidal effect and the reverse transcription were measured as described hereinafter.
HIV-1 viral suspensions were obtained by coculture of MT4 cells and H9 cells chronically infected by HIV-ILai isolate. 200 μl of a cell supernatant containing viral particles (HIV-ILai: 100 TCID50) were incubated at room temperature with various concentrations of different inhibitors. After 3 hours, virions were washed through 0.02 μm anopore membrane in 1.5 mL Vectaspin tube (Whatman) for 10 minutes at 5 000 g. Each of the three subsequent washes was performed in the same conditions after the viral concentrate was refilled with 500 μL of RPMI medium. Then, the viral concentrate was readjusted to the initial volume with RPMI plus 10% foetal calf serum (FCS). The residual infectivity was assayed on P4 cells as described by CHARNEAU et al. (1994, J. Mol. Biol., 241, 651-662). Briefly, P4 cells were plated using 100 μL of DMEM medium plus 10% FCS in 96 plate multi-wells at 20×10^5 cells per mL. After overnight incubation at 37° C., the supernatant was discarded and the viral preparation (200 μL) was added. One day later the wells were washed three times in PBS. Each well was refilled with 200 μL of a reaction buffer containing 50 mM Tris-HCl pH 8.5, 100 mM 2-mercaptoethanol, 0.05% Triton X-100 and 5 mM 4-methylumbelliferyl β-D-galactopyranoside (MUG). After 3 hours at 37° C., the level of the reaction was measured in a fluorescence microplate reader.
The retrovirucidal effect of the compound according to example 1 has been tested.

[2] = test system: HIV-1 Bal/Mono/macrophages; assay: Anti HIV-1 activity, HIV-1 Bal in monocytes/macrophages; type: cell-based; conditions: Human immunodeficiency virus 1, Macrophage
Procedure: as §1
(§2) The compound of example 1 has been also tested on various HIV strains and primary cell cultures. The table 1 illustrates the activity of this compound on these strains.

[3] = as above; type: cell-based; conditions: HIV-1 Bal/Mono/macrophages
Procedure: as §1, §2

[4] = Antiviral activity on HIV-LAI wild type; type: cell-based, HIV-1; conditions: HIV-LAI wild type test
Procedure: as §1
(§3) The antiviral activity of the compounds according to example 1 has been tested on various strains.

HIV-LAI wild type = assay: Antiviral activity on HIV-LAI wild type; type: cell-based, HIV-1; conditions: HIV-LAI wild type
Procedure: as §1, §3

[5] = test system: HIV-1 novirapine resistant strain; assay: Antiviral activity on HIV-1 nevirapine resistant strain; type: cell-based; conditions: Human immunodeficiency virus 1
Procedure: as §1
(§4) On an HIV-1 novirapine resistant strain the activities of the compound of example 1 are as follows: […]

[6] = as above; type: cell-based; conditions: HIV-1 novirapine resistant strain test
Procedure: as §1, §4

HIV-1 IIIIB/MT4 = assay: Anti HIV-1 activity, HIV-1 IIIB in MT4 cells; type: cell-based; conditions: Human immunodeficiency virus 1
Procedure: as §1, §2

[7] = Anti HIV-1 activity, HIV-1 IIIB in MT4 cells; type: cell-based; conditions: human; HIV-1 IIIIB/MT4
Procedure: as §1, §2

[8] = Anti HIV-1 activity, HIV-1 IIIB in PBMC; type: cell-based; conditions: HIV-1 IIIB/PBMC
Procedure: as §1, §2

HIV-1 IIIB/PBMC = assay: Anti HIV-1 activity, HIV-1 IIIB in PBMC; type: cell-based; conditions: Human immunodeficiency virus 1
Procedure: as §1, §2

HIV-2 D 194/PBMC = assay: Anti HIV activity, HIV-2 D 194 in PBMC; type: cell-based; conditions: Human immunodeficiency virus 2
Procedure: as §1, §2

[9] = Anti HIV activity, HIV-2 D 194 in PBMC; type: cell-based; conditions: HIV-2 D 194/PBMC
Procedure: as §1, §2

HIV-1 AZTres./MT4 = assay: Anti HIV-1 activity, HIV-1 AZT-resistant strain in MT4 cells; type: cell-based; conditions: Human immunodeficiency virus 1, MT4
Procedure: as §1, §2

[10] = HIV-1 strain 103N (RT Lys-103 to Asn mutant), pIC50=-log IC50, IC50 in M

SMILES	HIV1 pIC50 strain 103N (HIV-1 strain 103 N; [10])	HIV1 pIC50 strain IIIB (HIV-1 strain IIIB; pIC50=-log IC50, IC50 in M)	also measured
CCc1c(C)[nH]c(=O)c(N(C)C)c1C(=O)c1ccc(C)o1 [Compound 158]	6.625	8.041	–
CCc1c(C)[nH]c(=O)c(N(C)C)c1Sc1cccc(C)c1 [Compound 160]	7.177	8.678	–
CCc1c(C)[nH]c(=O)c(N(C)CCOC)c1Cc1cccc(C(F)(F)F)c1 [Compound 161]	5.814	7.821	–
CCc1c(C)[nH]c(=O)c(N(C)C)c1COc1cccc(C)c1 [Compound 162]	5.026	6.418	–
CCc1c(C)[nH]c(=O)c(N(C)C)c1CNc1cccc(C)c1 [Compound 163]	4.236	5.596	–
CCc1c(C)[nH]c(=O)c(N(C)CC=C(C)C)c1Cc1cccc(C)c1 [Compound 164]	6.505	7.818	–
CCc1c(C)[nH]c(=O)c(N(C)C)c1C(O)Cc1cccc(C)c1 (stereo not shown) [Compound 165]	<4	4.354	–
CCc1c(C)[nH]c(=O)c(N(C)C)c1CSc1cccc(C)c1 [Compound 166]	4.518	5.693	–
CCc1c(C)[nH]c(=O)c(N(C)C)c1CNc1ccc(C#N)cc1 [Compound 167]	5.828	6.338	–
CCc1c(C)[nH]c(=O)c(N)c1C(=O)c1ccc(OC)c(C)c1 [Compound 168]	4.806	4.525	–
CCc1c(C)[nH]c(=O)c(N(C)C)c1C(=O)c1ccc(OC)c(C)c1 [Compound 169]	5.771	7.101	–
CCc1c(C)[nH]c(=O)c(N(C)C)c1[S+]([O-])c1cc(C)cc(C)c1 (stereo not shown) [Compound 170]	7.224	8.553	–
CCc1c(C)[nH]c(=O)c(N(C)C)c1CNc1ncccn1 [Compound 171]	4.74	5.895	–
Cc1cc(C)cc(Cc2c3c([nH]c(=O)c2N)CCCC3)c1 [Compound 172]	4.903	6.419	–
Cc1cc(C)cc(Cc2c3c([nH]c(=O)c2N(C)C)CCCC3)c1 [Compound 173]	6.489	8.086	–
CCc1c(C)[nH]c(=O)c(N(C)C)c1C(=O)c1cccc(Br)c1 [Compound 174]	7.68	8.921	–
CCc1c(C)[nH]c(=O)c(N(C)CCOC)c1C(=O)c1cccc(C)c1 [Compound 175]	7.717	8.921	–
CCc1c(C)[nH]c(=O)c(N(C)C)c1Nc1cccc(C)c1 [Compound 176]	6.436	8.432	–
CCc1c(C)[nH]c(=O)c(N)c1C(=O)c1cccs1 [Compound 177]	<4	5.106	–
CCc1c(C)[nH]c(=O)c(N(C)C)c1C(=O)c1cccs1 [Compound 178]	6.461	7.873	–
CCc1c(C)[nH]c(=O)c(NC)c1C(=O)c1cccc(Br)c1 [Compound 179]	7.182	8.42	–
CCc1c(C)[nH]c(=O)c(N(C)CC)c1C(=O)c1cccc(Br)c1 [Compound 185]	7.433	8.745	–
CCc1c(C)[nH]c(=O)c(N(C)C)c1C(=O)c1cc(Br)cs1 [Compound 187]	7.006	8.481	–
CCc1c(C)[nH]c(=O)c(N(C)C)c1Cc1cc(Cl)cc(Cl)c1 [Compound 191]	7.553	8.097	–
CCc1c(C)[nH]c(=O)c(N(C)C)c1C(=O)c1cc(Cl)cc(Cl)c1 [Compound 192]	8.319	8.699	–
CCc1c(C)[nH]c(=O)c(N(C)C)c1Sc1cccc(Br)c1 [Compound 193]	7.245	8.481	–
CCc1c(C)[nH]c(=O)c(N(C)C)c1Oc1cc(C)cc(C)c1 [Compound 201]	–	–	HIV1 pIC50 strain 103N (HIV-1 strain 103 N; retrovirucidal effect, HIV-1 strain 103N (Lys-103 to Asn RT mutant), pIC50=-log IC50 (M)): 7.231; HIV1 pIC50 strain IIIB (HIV-1 strain IIIB; retrovirucidal effect, pIC50=-log IC50 (M)): 8.585
CCc1c(C)[nH]c(=O)c(N(C)C)c1Cc1cc(C)cc(C)c1 [Example 1, 3-dimethylamino-4-(3,5-dimethylbenzyl)-5-ethyl-6-methylpyridin-2(1H)-one]	–	–	IC50 [1]: 20 nM; % inhibition of infectivity (HIV-ILai isolate; 1 μm compound): 83%; % inhibition of infectivity (HIV-ILai isolate; 10 μm compound): 99%; inhibition at 0.01 µM (HIV-ILai isolate; Human immunodeficiency virus 1, 10 nM compound): 26%; inhibition at 0.1 µM (HIV-ILai isolate; Human immunodeficiency virus 1, 100 nM compound): 46%; IC50 [2]: 0.004 nM; CC50 [3]: > 1000 nM; CC50 [4]: > 100000 nM; S.I. (HIV-LAI wild type): > 33.333; IC50 (HIV-LAI wild type; Human immunodeficiency virus 1): 0.2 nM; IC50 [5]: > 10000 nM; CC50 [6]: > 10000 nM; IC50 (HIV-1 IIIIB/MT4): 2.4 nM; CC50 [7]: > 1000 nM; CC50 [8]: > 1000 nM; IC50 (HIV-1 IIIB/PBMC): 0.58 nM; IC50 (HIV-2 D 194/PBMC): > 1000 nM; CC50 [9]: > 1000 nM; IC50 (HIV-1 AZTres./MT4): 0.2 nM

— patent US6683079B2, “3-(amino-or aminoalkyl) pyridinone derivatives and their use for the treatment of HIV related diseases” (Centre National de la Recherche Scientifique, priority 1998, dated 2004)
